ChEMBL document CHEMBL5724914, “Linking interpersonal differences in gut microbiota composition and drug biotransformation activity” (2024)

Columns and labels:
[1] = (§1) The drug is tested on Z-022 corresponding to mouse gut metagenome with ENA study accession number: PRJEB37062 and ENA sample accession number: ERS12561821 for biotransformation under anaerobic condition. The drug concentrations were measured over 9 timepoints collected between 0 and 24 hours of incubation by liquid-chromatography-coupled mass spectrometry (LC–MS); conditions: 2 µM
[2] = as §1, with “Z-020” for “Z-022”, “rabbit” for “mouse”, “ERS12561819” for “ERS12561821”; conditions: 2 µM
[3] = as §1, with “Z-023” for “Z-022”, “to” for “to mouse gut”, “ERS12561822” for “ERS12561821”; conditions: 2 µM
[4] = human gut metagenome, 24 h, 2 µM
[5] = as §1, with “Z-014” for “Z-022”, “rat” for “mouse”, “ERS12561814” for “ERS12561821”; conditions: 2 µM
[6] = as §1, with “WLS-170” for “Z-022”, “human” for “mouse”, “ERS12561762” for “ERS12561821”; conditions: 2 µM
[7] = as §1, with “Z-012” for “Z-022”, “to” for “to mouse gut”, “ERS12561812” for “ERS12561821”; conditions: 2 µM
[8] = as §1, with “Z-017” for “Z-022”, “ERS12561816” for “ERS12561821”; conditions: 2 µM
[9] = human gut metagenome, 24 h, 2 µM; remark: listed apart in the source
[10] = human gut metagenome, 24 h, 2 µM; remark: listed apart in the source
[11] = as §1, with “WLS-010” for “Z-022”, “human” for “mouse”, “ERS12561743” for “ERS12561821”; conditions: 2 µM
[12] = human gut metagenome, 24 h, 2 µM; remark: listed apart in the source
[13] = human gut metagenome, 24 h, 2 µM; remark: listed apart in the source
[14] = human gut metagenome, 24 h, 2 µM; remark: listed apart in the source
[15] = human gut metagenome, 24 h, 2 µM; remark: listed apart in the source
[16] = as §1, with “Z-026” for “Z-022”, “to” for “to mouse gut”, “ERS12561825” for “ERS12561821”; conditions: 2 µM
[17] = as §1, with “WLS-086” for “Z-022”, “human” for “mouse”, “ERS12561752” for “ERS12561821”; conditions: 2 µM
[18] = as §1, with “Z-029” for “Z-022”, “rat” for “mouse”, “ERS12561828” for “ERS12561821”; conditions: 2 µM
[19] = as §1, with “WLS-082” for “Z-022”, “human” for “mouse”, “ERS12561751” for “ERS12561821”; conditions: 2 µM
[20] = human gut metagenome, 24 h, 2 µM; remark: listed apart in the source
Also: call rule not given here.

SMILES | Bacterial Biotransformation [1] | Bacterial Biotransformation [2] | Bacterial Biotransformation [3] | Bacterial Biotransformation [4] | Bacterial Biotransformation [5] | Bacterial Biotransformation [6] | Bacterial Biotransformation [7] | Bacterial Biotransformation [8] | Bacterial Biotransformation [9] | Bacterial Biotransformation [10] | Bacterial Biotransformation [11] | Bacterial Biotransformation [12] | Bacterial Biotransformation [13] | Bacterial Biotransformation [14] | Bacterial Biotransformation [15] | Bacterial Biotransformation [16] | Bacterial Biotransformation [17] | Bacterial Biotransformation [18] | Bacterial Biotransformation [19] | Bacterial Biotransformation [20]
CC12CC3CC(C)(C1)CC(N)(C3)C2 [MEMANTINE] | Compound metabolized | Compound NOT metabolized | Compound metabolized | Compound NOT metabolized | Compound NOT metabolized | Compound metabolized | Compound NOT metabolized | Compound NOT metabolized | Compound NOT metabolized | Compound NOT metabolized | Compound NOT metabolized | Compound NOT metabolized | Compound NOT metabolized | Compound metabolized | Compound NOT metabolized | Compound NOT metabolized | Compound NOT metabolized | Compound NOT metabolized | Compound NOT metabolized | Compound NOT metabolized
Cc1cc(C)cc(OCC2CNC(=O)O2)c1 (stereo not given) [METAXALONE] | Compound NOT metabolized | Compound NOT metabolized | Compound NOT metabolized | Compound metabolized | Compound NOT metabolized | Compound metabolized | Compound NOT metabolized | Compound metabolized | Compound metabolized | Compound metabolized | Compound metabolized | Compound metabolized | Compound metabolized | Compound metabolized | Compound metabolized | Compound metabolized | Compound metabolized | Compound NOT metabolized | Compound metabolized | Compound metabolized
COC(=O)C(c1ccccc1)C1CCCCN1 (stereo not given) [METHYLPHENIDATE] | Compound NOT metabolized | Compound NOT metabolized | Compound metabolized | Compound NOT metabolized | Compound NOT metabolized | Compound metabolized | Compound NOT metabolized | Compound NOT metabolized | Compound metabolized | Compound metabolized | Compound NOT metabolized | Compound NOT metabolized | Compound NOT metabolized | Compound metabolized | Compound NOT metabolized | Compound NOT metabolized | Compound NOT metabolized | Compound NOT metabolized | Compound NOT metabolized | Compound NOT metabolized
CN1CCN2c3ccccc3Cc3ccccc3C2C1 (stereo not given) [MIANSERIN] | Compound metabolized | Compound NOT metabolized | Compound NOT metabolized | Compound NOT metabolized | Compound NOT metabolized | Compound metabolized | Compound NOT metabolized | Compound NOT metabolized | Compound metabolized | Compound NOT metabolized | Compound NOT metabolized | Compound NOT metabolized | Compound metabolized | Compound metabolized | Compound NOT metabolized | Compound NOT metabolized | Compound metabolized | Compound NOT metabolized | Compound NOT metabolized | Compound metabolized
CC#C[C@]1(O)CC[C@H]2[C@@H]3CCC4=CC(=O)CCC4=C3[C@@H](c3ccc(N(C)C)cc3)C[C@@]21C [MIFEPRISTONE] | Compound NOT metabolized | Compound metabolized | Compound NOT metabolized | Compound NOT metabolized | Compound NOT metabolized | Compound metabolized | Compound NOT metabolized | Compound NOT metabolized | Compound metabolized | Compound NOT metabolized | Compound metabolized | Compound NOT metabolized | Compound NOT metabolized | Compound metabolized | Compound NOT metabolized | Compound NOT metabolized | Compound metabolized | Compound NOT metabolized | Compound metabolized | Compound metabolized
CC(C)(C)NCC(O)COc1cccc2c1CC(O)C(O)C2 (stereo not given) [NADOLOL] | Compound metabolized | Compound NOT metabolized | Compound NOT metabolized | Compound metabolized | Compound NOT metabolized | Compound metabolized | Compound NOT metabolized | Compound NOT metabolized | Compound metabolized | Compound metabolized | Compound NOT metabolized | Compound NOT metabolized | Compound NOT metabolized | Compound metabolized | Compound NOT metabolized | Compound NOT metabolized | Compound metabolized | Compound NOT metabolized | Compound NOT metabolized | Compound metabolized
CC(C)[C@H]1CC[C@H](C(=O)N[C@H](Cc2ccccc2)C(=O)O)CC1 [NATEGLINIDE] | Compound NOT metabolized | Compound metabolized | Compound metabolized | Compound metabolized | Compound NOT metabolized | Compound metabolized | Compound NOT metabolized | Compound NOT metabolized | Compound metabolized | Compound metabolized | Compound metabolized | Compound metabolized | Compound metabolized | Compound metabolized | Compound metabolized | Compound NOT metabolized | Compound metabolized | Compound NOT metabolized | Compound metabolized | Compound metabolized
CN(C)C(=O)Oc1cccc([N+](C)(C)C)c1.[Br-] [NEOSTIGMINE BROMIDE] | Compound NOT metabolized | Compound NOT metabolized | Compound NOT metabolized | Compound NOT metabolized | Compound NOT metabolized | Compound NOT metabolized | Compound NOT metabolized | Compound NOT metabolized | Compound NOT metabolized | Compound NOT metabolized | Compound NOT metabolized | Compound NOT metabolized | Compound NOT metabolized | Compound NOT metabolized | Compound NOT metabolized | Compound NOT metabolized | Compound NOT metabolized | Compound metabolized | Compound NOT metabolized | Compound NOT metabolized
